Tests used:
Test in all cases: two-electrode voltage clamp, Xenopus oocytes
Format in all cases: cell-based
hTASK-1 (K2P3.1, KCNK3) = target: T1, hTASK-1 (K2P3.1, KCNK3) (Homo sapiens, UniProt O14649); conditions: read-out: TASK-1
T1 construct: full-length cDNA in pIRES-CD8 vector; cRNA injected into Xenopus laevis oocytes
Description: two-electrode voltage clamp, Xenopus oocytes on hTASK-1 (K2P3.1, KCNK3)

hTASK-3 (K2P9.1, KCNK9) = target: T2, hTASK-3 (K2P9.1, KCNK9) (Homo sapiens, UniProt Q9NPC2); conditions: read-out: TASK-3
T2 construct: full-length cDNA in pBR4-TOPO (mutants in pCDNA3); cRNA injected into Xenopus laevis oocytes
Description: two-electrode voltage clamp, Xenopus oocytes on hTASK-3 (K2P9.1, KCNK9)

hTRESK (K2P18.1, KCNK18) = target: T3, hTRESK (K2P18.1, KCNK18) (Homo sapiens, UniProt Q7Z418); conditions: read-out: TRESK
T3 construct: full-length cDNA in plasmid pEXO; cRNA injected into Xenopus laevis oocytes
T3 sequence (Q7Z418 1-384): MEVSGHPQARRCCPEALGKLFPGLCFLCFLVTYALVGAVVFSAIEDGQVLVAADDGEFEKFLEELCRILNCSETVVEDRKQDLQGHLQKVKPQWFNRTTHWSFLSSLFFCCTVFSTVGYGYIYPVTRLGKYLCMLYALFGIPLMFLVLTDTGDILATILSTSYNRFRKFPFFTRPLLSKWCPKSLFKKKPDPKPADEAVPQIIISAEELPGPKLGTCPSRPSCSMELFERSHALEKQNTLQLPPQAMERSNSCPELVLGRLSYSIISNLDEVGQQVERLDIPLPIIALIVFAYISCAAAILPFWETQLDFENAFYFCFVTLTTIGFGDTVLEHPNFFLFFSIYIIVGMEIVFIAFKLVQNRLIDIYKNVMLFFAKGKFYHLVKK
Description: two-electrode voltage clamp, Xenopus oocytes on hTRESK (K2P18.1, KCNK18)

T1 sequence (O14649 whole entry): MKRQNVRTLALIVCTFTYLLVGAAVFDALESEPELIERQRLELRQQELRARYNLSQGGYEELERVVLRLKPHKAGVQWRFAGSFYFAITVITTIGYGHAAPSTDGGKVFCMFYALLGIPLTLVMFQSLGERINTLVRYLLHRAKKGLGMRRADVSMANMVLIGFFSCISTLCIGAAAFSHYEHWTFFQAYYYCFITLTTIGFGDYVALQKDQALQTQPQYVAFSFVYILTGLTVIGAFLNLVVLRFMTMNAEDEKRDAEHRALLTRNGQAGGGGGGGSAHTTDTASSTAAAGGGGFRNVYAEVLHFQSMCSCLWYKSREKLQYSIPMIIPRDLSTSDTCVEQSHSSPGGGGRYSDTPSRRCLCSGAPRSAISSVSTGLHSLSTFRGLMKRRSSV
T2 sequence (Q9NPC2 whole entry): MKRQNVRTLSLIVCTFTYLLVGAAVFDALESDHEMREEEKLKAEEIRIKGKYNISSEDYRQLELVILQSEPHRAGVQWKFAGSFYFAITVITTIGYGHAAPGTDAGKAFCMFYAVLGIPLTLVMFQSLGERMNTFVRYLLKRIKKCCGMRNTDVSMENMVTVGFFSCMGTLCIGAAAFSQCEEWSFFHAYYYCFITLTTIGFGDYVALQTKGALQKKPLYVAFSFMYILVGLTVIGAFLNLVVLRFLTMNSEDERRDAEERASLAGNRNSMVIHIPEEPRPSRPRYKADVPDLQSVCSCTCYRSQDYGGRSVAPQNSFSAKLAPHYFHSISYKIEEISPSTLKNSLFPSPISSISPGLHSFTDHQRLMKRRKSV

IC50 (hTASK-1 (K2P3.1, KCNK3)) | IC50 (hTASK-3 (K2P9.1, KCNK9)) | IC50 (hTRESK (K2P18.1, KCNK18)) | Structure (SMILES)
– | 133 ± 5.9 µM | 231 ± 105 µM | O=C(/C=C/C=C/c1ccc2c(c1)OCO2)N1CCCCC1 [piperine]
227 ± 46.5 µM | 385 ± 55.6 µM | 155 ± 70.9 µM | CCCCC[C@H](O)CC(=O)CCc1ccc(O)c(OC)c1 [6-gingerol]
485 ± 18.2 µM | 328 ± 24.7 µM | – | CC1(C)CCC[C@]2(C)[C@@H](C=O)C(C=O)=CC[C@@H]12 [polygodial]

Structure (SMILES) | IC50 (hTASK-1 (K2P3.1, KCNK3)) | IC50 (hTASK-3 (K2P9.1, KCNK9)) | IC50 (hTRESK (K2P18.1, KCNK18))
COc1cc(CNC(=O)CCCC/C=C/C(C)C)ccc1O [capsaicin] | 61.1 ± 4 µM | 41.8 ± 3.6 µM | 70.2 ± 5.3 µM

Source: PMC3831292 (Frontiers in Pharmacology, 2013)
